From patent publication US12385042B2, “Cell-penetrating peptides” (VECTIOPEP OÜ, priority 2019, dated 2025)
Where a SMILES comes first, the peptide text is derived from it. Bridges are numbered along the chain shown (N, C = ends). Roman numbers before positions name the chains, in order. [ ]: non-standard residue; d: D form. The star is where a group is joined. Arachidoyl = CCCCCCCCCCCCCCCCCCCC(=O)*; Orn = NCCC[C@H](N)C(=O)O

Experiment: Negative staining TEM of CPP/siRNA nanoparticles
Format: physicochemical
Details: CPP/siRNA complexes at MR30
Procedure: For the morphological analysis the CPP/siRNA complexes were assembled as described above at MR30. For negative staining, copper grids were covered with Formvar film and carbon layer using Leica EM ACE600 carbon coater (Leica Microsystems, Germany). Then, 10 μL of each sample was absorbed to the grids for 2 min and excess of solution was gently removed. Samples were then exposed to 2% aqueous uranyl acetate solution for 1 min. After removing excess stain with filter paper, the samples were allowed to air-dry. The samples were examined at 120 kV accelerating voltage on FEI Tecnai G2 Spirit electron microscope (FEI, The Netherlands).

## CCCCCCCCCCCCCCCCCCCC(=O)N[C@@H](Cc1c[nH]cn1)C(=O)N[C@@H](Cc1c[nH]cn1)C(=O)N[C@@H](Cc1c[nH]cn1)C(=O)N[C@@H](Cc1c[nH]cn1)C(=O)N[C@@H](Cc1ccc(O)cc1)C(=O)N[C@@H](Cc1c[nH]cn1)C(=O)N[C@@H](Cc1c[nH]cn1)C(=O)NCC(=O)NCCC[C@H](N)C(=O)N[C@H](C(=O)N[C@@H](CC(C)C)C(=O)N[C@@H](CC(C)C)C(=O)N[C@@H](CCCCN)C(=O)N[C@@H](C)C(=O)N[C@@H](CC(C)C)C(=O)N[C@@H](CCCCN)C(=O)N[C@@H](C)C(=O)N[C@@H](CC(C)C)C(=O)N[C@@H](C)C(=O)N[C@@H](CCCCN)C(=O)N[C@@H](C)C(=O)N[C@H](C(=O)N[C@@H](CC(C)C)C(N)=O)[C@@H](C)CC)[C@@H](C)CC [NF70] (I: H-[Orn]ILLKALKALAKAIL-NH2 / II: Arachidoyl-HHHHYHHG; amide I:1-II:C)
  length or size of elongated particles, conglomerates or aggregates (TEM): 40-80 nm
  nanoparticle diameter / size (TEM): 30-40 nm
